Here are results for nine molecules from patent publication US20250339569A1, “CARBONIC ANHYDRASE IX LIGANDS” (priority 2021, published 2025).

Each structure is given as a SMILES string. Where two headings read alike, the source gives them in different places. Starred links: 1 amine or outer side, 2 acyl side, 3 side chain; linkers in the order of their positions; H or OH if unused. Positions of bridges follow the written chain, without caps; N, C: chain ends. Non-standard residues stand in square brackets, D forms with d. Residues, ends and D or L forms follow the SMILES beside them. *: point of attachment. Phe(3-NHCO(CH2)3SO2NH2) = N[C@@H](Cc1cccc(NC(=O)CCCS(N)(=O)=O)c1)C(=O)O; DOTA = O=C(O)CN1CCN(CC(=O)O)CCN(CC(=O)*)CCN(CC(=O)O)CC1; Nip(3R) = O=C([C@@H]1CCCN([*:1])C1)[*:2]; Propanoyl(3-SO2NH2) = NS(=O)(=O)CCC(=O)*; Phe(4-NH2) = Nc1ccc(C[C@H](N)C(=O)O)cc1; mXylylene = c1cc(C[*:1])cc(C[*:2])c1; X14 = O=C([C@H]1CCCN([*:1])C1)[*:2]; X18 = NS(=O)(=O)c1ccc(C(=O)*)nc1; X1 = O=C(CN1CCN([*:1])CC1)[*:2]; X27 = NS(=O)(=O)c1ccc(C(=O)*)s1; Pip = O=C(O)[C@@H]1CCCCN1; Dap = NC[C@H](N)C(=O)O Where only a bound is given, the exact number is not on record here.

In assay [1] the target is T1, human carbonic anhydrase IX (hCAIX-Fc) (Homo sapiens, UniProt Q16790).
T1 construct: purchased SinoBliological (Sino Biological) 10107-H02H
The experiment in a line: Surface plasmon resonance assay with hCAIX-Fc. In kind it is binding. The conditions noted are these: 25° C.; for t1/2 category (activity): SPR dissociation half-life, hCAIX-Fc; for Kd: SPR, hCAIX-Fc captured, read-out: pKD category (activity) (converted).

Assay [2] deals with T2, CAIX-expressing human HT-29 colorectal cancer cells (Homo sapiens, UniProt Q16790).
T2 construct: CAIX-expressing human HT-29 colorectal cancer cells; host or cells: HT-29 human colorectal cancer cells
The assay is described as follows: FACS binding assay (IC50 determination, competition with tracer 3BP-2776 or 3BP-4149). The conditions noted are these: FACS binding assay, HT-29 cells, 4° C., 1 hour, read-out: pIC50 category (activity) (converted). The method, boiled down: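 HT-29 cells in FACS buffer (PBS, 1% FCS) at 500.000 cells/ml were exposed to compounds competing with a labelled tracer, with biotinylated compounds detected by 1 μg/mL APC-streptavidin for 30 min on ice. APC/Cy5 median fluorescence was read by flow cytometry and IC50 derived by 4PL fit.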
Background: A flow cytometer gives signals particle by particle.

Where [3] appears, read: competition with tracer 3BP-2776 (10 nM, biotin-labeled).
Where [4] appears, read: competition with tracer 3BP-4149 (3 nM, Cy5-labeled).

As to `CC(C)C[C@@H]1NC(=O)[C@H](Cc2cccc(NC(=O)CCCS(N)(=O)=O)c2)NC(=O)[C@H](CC(=O)O)NC(=O)[C@H]2CCCN2C(=O)[C@H](CCC(=O)O)NC(=O)[C@@H](NC(=O)[C@H](Cc2ccc(O)cc2)NC(=O)CN2CCN(C(=O)CN3CCN(CC(=O)O)CCN(CC(=O)O)CCN(CC(=O)O)CC3)CC2)CSCc2cccc(c2)CSC[C@@H](C(N)=O)NC(=O)[C@H](CO)NC(=O)[C@H](Cc2c[nH]c3ccccc23)NC(=O)[C@H]([C@@H](C)O)NC1=O` [3BP-4448] ({DOTA}-[X1]YCE[dP]D[Phe(3-NHCO(CH2)3SO2NH2)]LTWSC-NH2; linker 3-12 via mXylylene), in assay [1], the “t1/2 category (activity)” value is “A (t1/2>15.0 minutes)” and the Kd was less than 10 nM. Further, in assay [2] (setting [3]), the IC50 was less than 10 nM.

With `CC(C)C[C@@H]1NC(=O)[C@H](Cc2cccc(NC(=O)CCCS(N)(=O)=O)c2)NC(=O)[C@H](CC(=O)O)NC(=O)[C@H]2CCCN2C(=O)[C@H](CCC(=O)O)NC(=O)[C@@H](NC(=O)[C@H](CCC(N)=O)NC(=O)CN2CCN(CC(=O)O)CCN(CC(=O)O)CCN(CC(=O)O)CC2)CSCc2cccc(c2)CSC[C@@H](C(N)=O)NC(=O)[C@H](CO)NC(=O)[C@H](Cc2c[nH]c3ccccc23)NC(=O)[C@H]([C@@H](C)O)NC1=O` [3BP-4453], in assay [1], the “t1/2 category (activity)” value is reported as “A (t1/2>15.0 minutes)” and the Kd was less than 10 nM. Further, the IC50 in assay [2] (setting [3]) is less than 10 nM.

`CC(C)C[C@@H]1NC(=O)[C@H](Cc2cccc(NC(=O)CCCS(N)(=O)=O)c2)NC(=O)[C@H](CC(=O)O)NC(=O)[C@H]2CCCN2C(=O)[C@H](CCC(=O)O)NC(=O)[C@@H](NC(=O)[C@H](Cc2ccc(O)cc2)NC(=O)[C@H]2CCCN(C(=O)CN3CCN(CC(=O)O)CCN(CC(=O)O)CCN(CC(=O)O)CC3)C2)CSCc2cccc(c2)CSC[C@@H](C(N)=O)NC(=O)[C@H](CO)NC(=O)[C@H](Cc2c[nH]c3ccccc23)NC(=O)[C@H]([C@@H](C)O)NC1=O` [3BP-4454] ({DOTA}-[X14]YCE[dP]D[Phe(3-NHCO(CH2)3SO2NH2)]LTWSC-NH2; linker 3-12 via mXylylene): in assay [1], the “t1/2 category (activity)” value is listed as “A (t1/2>15.0 minutes)” and the Kd is less than 10 nM. The IC50 in assay [2] (setting [4]) was 10 to 79.4 nM.

Regarding `CC(C)C[C@@H]1NC(=O)[C@H](Cc2cccc(NC(=O)CCCS(N)(=O)=O)c2)NC(=O)[C@H](CC(=O)O)NC(=O)[C@H]2CCCN2C(=O)[C@H](CCC(=O)O)NC(=O)[C@@H](NC(=O)[C@H](Cc2ccc(O)cc2)NC(=O)[C@@H]2CCCN(C(=O)CN3CCN(CC(=O)O)CCN(CC(=O)O)CCN(CC(=O)O)CC3)C2)CSCc2cccc(c2)CSC[C@@H](C(N)=O)NC(=O)[C@H](CO)NC(=O)[C@H](Cc2c[nH]c3ccccc23)NC(=O)[C@H]([C@@H](C)O)NC1=O` [3BP-4455] ({DOTA}-[Nip(3R)]YCE[dP]D[Phe(3-NHCO(CH2)3SO2NH2)]LTWSC-NH2; linker 3-12 via mXylylene), in assay [1], the “t1/2 category (activity)” value was “A (t1/2>15.0 minutes)” and the Kd is less than 10 nM. Moreover, the IC50 in assay [2] (setting [3]) is less than 10 nM.

With `CC(C)C[C@@H]1NC(=O)[C@H](Cc2cccc(NC(=O)CCCS(N)(=O)=O)c2)NC(=O)[C@H](CC(=O)O)NC(=O)[C@H]2CCCN2C(=O)[C@H](CCC(=O)O)NC(=O)[C@@H](NC(=O)[C@H](Cc2ccc(O)cc2)NC(=O)[C@@H]2CCCCN2C(=O)CN2CCN(CC(=O)O)CCN(CC(=O)O)CCN(CC(=O)O)CC2)CSCc2cccc(c2)CSC[C@@H](C(N)=O)NC(=O)[C@H](CO)NC(=O)[C@H](Cc2c[nH]c3ccccc23)NC(=O)[C@H]([C@@H](C)O)NC1=O` [3BP-4456] ({DOTA}-[Pip]YCE[dP]D[Phe(3-NHCO(CH2)3SO2NH2)]LTWSC-NH2; linker 3-12 via mXylylene), in assay [1], the “t1/2 category (activity)” value was “A (t1/2>15.0 minutes)” and the Kd was less than 10 nM. In addition, the IC50 in assay [2] (setting [4]) is 10 to 79.4 nM.

For `CC(C)C[C@@H]1NC(=O)[C@H](Cc2ccc(NC(=O)c3ccc(S(N)(=O)=O)s3)cc2)NC(=O)[C@H](CC(=O)O)NC(=O)[C@H]2CCCN2C(=O)[C@H](CCC(=O)O)NC(=O)[C@@H](NC(=O)[C@H](Cc2ccc(O)cc2)NC(=O)CN2CCN(C(=O)CN3CCN(CC(=O)O)CCN(CC(=O)O)CCN(CC(=O)O)CC3)CC2)CSCc2cccc(c2)CSC[C@@H](C(N)=O)NC(=O)[C@H](CO)NC(=O)[C@H](Cc2c[nH]c3ccccc23)NC(=O)[C@H]([C@@H](C)O)NC1=O` [3BP-4457] ({DOTA}-[X1]YCE[dP]D[Phe(4-NH2)](X27)LTWSC-NH2; linker 3-12 via mXylylene), in assay [1], the “t1/2 category (activity)” value was “B (t1/2 between 5.1 and 15.0 minutes)”; the Kd was less than 10 nM. Moreover, the IC50 in assay [2] (setting [4]) was less than 10 nM.

On to `CC(C)C[C@@H]1NC(=O)[C@H](Cc2ccc(NC(=O)c3ccc(S(N)(=O)=O)cn3)cc2)NC(=O)[C@H](CC(=O)O)NC(=O)[C@H]2CCCN2C(=O)[C@H](CCC(=O)O)NC(=O)[C@@H](NC(=O)[C@H](CCC(N)=O)NC(=O)CN2CCN(C(=O)CN3CCN(CC(=O)O)CCN(CC(=O)O)CCN(CC(=O)O)CC3)CC2)CSCc2cccc(c2)CSC[C@@H](C(N)=O)NC(=O)[C@H](CO)NC(=O)[C@H](Cc2c[nH]c3ccccc23)NC(=O)[C@H]([C@@H](C)O)NC1=O` [3BP-4480] ({DOTA}-[X1]QCE[dP]D[Phe(4-NH2)](X18)LTWSC-NH2; linker 3-12 via mXylylene), for which, in assay [1], the “t1/2 category (activity)” value is “C (t1/2 between 2.1 and 5.0 minutes)”; the Kd was less than 10 nM. Also, the IC50 in assay [2] (setting [4]) is 10 to 79.4 nM.

For the molecule `CC(C)C[C@@H]1NC(=O)[C@H](Cc2cccc(NC(=O)CCCS(N)(=O)=O)c2)NC(=O)[C@H](CC(=O)O)NC(=O)[C@H]2CCCN2C(=O)[C@H](CCC(=O)O)NC(=O)[C@@H]2CSCc3cccc(c3)CSC[C@@H](C(N)=O)NC(=O)[C@H](CNC(=O)C[C@H](NC(=O)CN3CCN(CC(=O)O)CCN(CC(=O)O)CCN(CC(=O)O)CC3)C(=O)N2)NC(=O)[C@H](Cc2c[nH]c3ccccc23)NC(=O)[C@H]([C@@H](C)O)NC1=O` [3BP-4488] ({DOTA}-DCE[dP]D[Phe(3-NHCO(CH2)3SO2NH2)]LTW[Dap]C-NH2; lactam 1-10; linker 2-11 via mXylylene), in assay [1], the “t1/2 category (activity)” value is recorded as “A (t1/2>15.0 minutes)” and the Kd was less than 10 nM. In addition, in assay [2] (setting [4]), the IC50 was less than 10 nM.

Take `CC(C)C[C@@H]1NC(=O)[C@H](Cc2ccc(NC(=O)CCS(N)(=O)=O)cc2)NC(=O)[C@H](CC(=O)O)NC(=O)[C@H]2CCCN2C(=O)[C@H](CCC(=O)O)NC(=O)[C@@H]2CSCc3cccc(c3)CSC[C@@H](C(N)=O)NC(=O)[C@H](CNC(=O)C[C@H](NC(=O)CN3CCN(CC(=O)O)CCN(CC(=O)O)CCN(CC(=O)O)CC3)C(=O)N2)NC(=O)[C@H](Cc2c[nH]c3ccccc23)NC(=O)[C@H]([C@@H](C)O)NC1=O` [3BP-4489] ({DOTA}-DCE[dP]D[Phe(4-NH2)](Propanoyl(3-SO2NH2))LTW[Dap]C-NH2; lactam 1-10; linker 2-11 via mXylylene): in assay [1], the “t1/2 category (activity)” value is on record as “A (t1/2>15.0 minutes)” and the Kd was less than 10 nM. Moreover, the IC50 in assay [2] (setting [4]) is less than 10 nM.
